Data on 2 compounds can be found in patent US10813938B2 (priority 2015, dated 2020).

Converted amounts (≈) assume the structure as drawn.

One data set in a line: physchem. The following applies: pH 6.8, aqueous buffer, thermodynamic from solid. Here is the method: The injection volume was 15 μL. […] The following gradient was used: […]
Data set [1] is described as follows: RH stability study (~97% RH, XRPD before/after). The following applies: ~97% relative humidity, 1 day, ambient temperature; FIG. 16.

As a reminder, the solubility is the dissolved amount per volume that the medium holds. A high value points to a readily soluble substance. In “physchem”, `O=C(O[C@@H]1Cc2c(O)cc(O)cc2O[C@@H]1c1cc(O)c(O)c(O)c1)c1cc(O)c(O)c(O)c1` [EGCG, Epigallocatechin gallate] had a solubility at 24 h of 24 mg/mL (≈ 52.4 mM).

On to `Cn1c(=O)c2c(ncn2C)n(C)c1=O` [Caffeine], for which the “Solid form after exposure to ~97% RH (XRPD)” value in data set [1] is on record as “conversion to the hydrate”.
